According to US12391662B2, “Lipid compounds and lipid nanoparticle compositions” (RINUAGENE BIOTECHNOLOGY CO., LTD., priority 2022, dated 2025):

Legend:
[1] = LNP mRNA encapsulation efficiency (Quant-iT RiboGreen RNA Assay Kit); type: physicochemical; settings: LNP of Compound:cholesterol:DSPC:DMG-PEG2000=50:38.5:10:1.5 encapsulating mRNA
Experimental: (§1) The mRNA stock solution was dispersed in 20 mM acetic acid solution (pH 5.0) to give a final concentration of 200 μg/mL (aqueous phase). […] The mRNA was mixed with the lipid mixture by T-mixing and controlling the flow rate of aqueous phase and oil phase (3:1) with a total flow rate of 12-50 ml/min, to obtain LNP-encapsulated mRNA. The encapsulated LNP was diluted with buffer (pH 5.0-5.5) and then concentrated by ultrafiltration with replacement of diluent, and finally LNP was concentrated to 200 μg/mL˜600 μg/mL of mRNA, while the pH of LNP was adjusted to about 7-8. Finally, Quant-iT™ RiboGreen™ RNA Assay Kit (Invirtogen by Thermo Fisher Scientific, cat #R11490), and 10% Triton X-100 solution or 10% OTG solution as an emulsion breaker were used to detect the total and free content of mRNA in the LNP, and the encapsulation efficiency of LNP was calculated.

[2] = LNP particle size and PDI (Malvern ZetaSizer); type: physicochemical; settings: LNP of Compound:cholesterol:DSPC:DMG-PEG2000=50:38.5:10:1.5 encapsulating mRNA
Experimental: as §1, with “Finally, Quant-iT™ RiboGreen™ RNA Assay Kit (Invirtogen by Thermo Fisher Scientific, cat #R11490), and 10% Triton X-100 solution or 10% OTG solution as an emulsion breaker were used to detect the total and free content of mRNA in the LNP, and the encapsulation efficiency of LNP was calculated.” left out

[3] = tested on: SD rats; experiment: Toxicity assay: clinical markers 24 hours after intravenous LNP administration; type: in vivo; settings: LNP intravenous 3 mg/kg, 24 hours after administration
Experimental: The nanoparticle samples containing different lipids were administered to rats (SD rats, Zhejiang Vital River Laboratory Animal Technology Co., Ltd, 3 males and 3 females per group, body weight: 220-300 g for female, 260-340 g for male) by intravenous injection at a dose of 3 mg/kg. The expression of various clinical markers was assessed at 24 hours after administration and compared with the expression induced by SM102 LNP formulation (i.e., LNP formulation made from the known SM102 lipid, which was prepared according to the method of Test Example 1 in the same ratio) as well as by phosphate buffered saline (PBS).

[4] = tested on: rats; experiment: Toxicity assay: serum ALT/AST and deaths after single intravenous dose of Luciferase mRNA LNPs; type: in vivo; settings: LNP intravenous single dose 3 mg/kg; for aspartate aminotransferase and alanine aminotransferase values compared with MC3 and SM102 groups: serum 24 hours after administration, FIGS. 3A-3B; for animals that died during the test: five animals per group
Experimental: Animals were grouped according to body weight (five animals per group) one day before administration (Zhejiang Vital River Laboratory Animal Technology Co. Ltd, male, body weight: 170-220 g). […] Luciferase mRNA was encapsulated in said lipid nanoparticle compositions.
The administration volume is 10 mL/kg, and the administration dosage is 3 mg/kg.

[5] = tested on: balb/c mice; experiment: Extrahepatic delivery of Luciferase mRNA LNPs after intravenous injection, organ fluorescence (liver, spleen, stomach, intestine tract); type: in vivo; settings: 20 μg LNP intravenous, 24 hours, FIGS. 2A-2D, compared with MC3 and Compound 20A groups
Experimental: Five balb/c mice (Zhejiang Vital River Laboratory Animal Technology Co., Ltd, female, 6-8 weeks old, 18-20 g) were taken as a group, labeled with a black marker pen on the tail with numbers 1 # to 5 #; five mice in each group were sequentially injected intravenously with 20 μg of the lipid nanoparticle composition. The lipid nanoparticle compositions of the present invention were prepared according to Test Example 1, in which Luciferase mRNA was encapsulated. A phosphate buffered saline (PBS) group was set up in parallel as a blank control, and an MC3 group was set up as a reference (obtained by preparation according to the method and ratio of Test Example 1).
Fluorescence assay was performed for each group of mice at 24 hours after intravenous administration of the samples ([…] YEASEN,LOT:D5330150, IP, 150 mg/kg was administered 10 minutes in advance for each group), the mice were anesthetized, and then put into a small animal living optical imaging system-IVIS® Lumina LT Series III according to the orders from tail mark 1 # to 5 #. The whole-body fluorescence was detected to evaluate the delivery and the expression of the prepared Luciferase mRNA.
At the end of the test, the mice were sacrificed by cervical dislocation, and the liver, spleen, stomach, and intestine tract were harvested, and the organs were discharged according to the corresponding positions from 1 # to 5 # for fluorescence detection of the organs.

## CCCCCCCCCCC(=O)OCCCCCCC1(CCCCCCCC(=O)OC(CCCCCCCC)CCCCCCCC)OCC(CN(C)C)O1 (centres unmarked) [Compound 6]
[1]
  Encapsulation Efficiency: 95.50%
[2]
  PDI: 0.1676
  Particle Size: 69.85 nm

## CCCCCCCCCCC(=O)OCCCCCCC1(CCCCCCCC(=O)OC(CCCCCCCC)CCCCCCCC)OCC(CN(C)C)CO1 (centres unmarked) [Compound 4]
[1]
  Encapsulation Efficiency: 96.23%
[2]
  PDI: 0.1387
  Particle Size: 69.03 nm

## CCCCCCCCCCCOC(=O)CCCCCC1(CCCCCCCC(=O)OC(CCCCCCCC)CCCCCCCC)OCC(CN(C)C)CO1 (centres unmarked) [Compound 1]
[1]
  Encapsulation Efficiency: 97.22%
[2]
  PDI: 0.1125
  Particle Size: 66.97 nm

## CCCCCCCCCCCOC(=O)CCCCCC1(CCCCCCCC(=O)OC(CCCCCCCC)CCCCCCCC)OCC(CCN(C)CCC)O1 (centres unmarked) [Compound 15]
[1]
  Encapsulation Efficiency: 97.2%
[2]
  PDI: 0.10
  Particle Size: 61.73 nm

## CCCCCCCCCCC(=O)OCCCCCCC1(CCCCCCCC(=O)OC(CCCCCCCC)CCCCCCCC)OCC(CCN(C)C)O1 (centres unmarked) [Compound 5]
[1]
  Encapsulation Efficiency: 94.92%
[3]
  Alanine transaminase: 65.72 U/L
  Aspartate transaminase: 251.10 U/L
[2]
  PDI: 0.04107
  Particle Size: 89.54 nm

## CCCCCCCCCCC(=O)OCCCCCCC1(CCCCCCCCOC(=O)C(CCCCCCCC)CCCCCCCC)OCC(CN(C)C)O1 (centres unmarked) [Compound 7]
[1]
  Encapsulation Efficiency: 96.52%
[2]
  PDI: 0.1537
  Particle Size: 92.38 nm

## CCCCCCCCCCCOC(=O)CCCCCC1(CCCCCCCC(=O)OC(CCCCCCCC)CCCCCCCC)OCC(CCN(CC)C(C)C)O1 (centres unmarked) [Compound 16]
[1]
  Encapsulation Efficiency: 97.6%
[2]
  PDI: 0.03
  Particle Size: 71.68 nm

## CCCCCCCCCCCOC(=O)CCCCCC1(CCCCCCCC(=O)OC(CCCCCCCC)CCCCCCCC)OCC(CCN(CC)CC)O1 (centres unmarked) [Compound 11]
[1]
  Encapsulation Efficiency: 97.5%
[2]
  PDI: 0.06
  Particle Size: 80.34 nm

## CCCCCCCCC(CCCCCCCC)CC(=O)CCCCCCCC1(CCCCCCCC(=O)OC(CCCCCCCC)CCCCCCCC)OCC(CCN(C)C)O1 (centres unmarked) [Compound 18]
[1]
  Encapsulation Efficiency: 96.5%
[2]
  PDI: 0.10
  Particle Size: 69.23 nm

## CCCCCCCCCCCOC(=O)CCCCCC1(CCCCCCCC(=O)OC(CCCCCCCC)CCCCCCCC)OCC(CCCN(C)C)O1 (centres unmarked) [Compound 13]
[1]
  Encapsulation Efficiency: 89.3%
[4]
  aspartate aminotransferase and alanine aminotransferase values compared with MC3 and SM102 groups: lower than those of the groups of the ionizable lipids MC3 and SM102
[2]
  PDI: 0.16
  Particle Size: 98.15 nm
[5]
  extrahepatic delivery effect: significant extrahepatic delivery effects

## CCCCCCCCCCCOC(=O)CCCCCC1(CCCCCC(=O)OCCCCCCCCCCC)OCC(CCN(C)C)O1 (centres unmarked) [Compound 19]
[1]
  Encapsulation Efficiency: 93.3%
[2]
  PDI: 0.34
  Particle Size: 110.3 nm

## CCCCCCCCCCC(=O)OCCCCCCC1(CCCCCCCCOC(=O)C(CCCCCCCC)CCCCCCCC)OCC(CCN(C)C)O1 (centres unmarked) [Compound 8]
[1]
  Encapsulation Efficiency: 90.99%
[2]
  PDI: 0.09334
  Particle Size: 99.68 nm

## CCCCCCCCCCCOC(=O)CCCCCN(CCO)CCCCCCCC(=O)OC(CCCCCCCC)CCCCCCCC [SM-102, reference compound]
[1]
  Encapsulation Efficiency: 97.5%
[3]
  Alanine transaminase: 286.51 U/L
  Aspartate transaminase: 486.42 U/L
[2]
  PDI: 0.07
  Particle Size: 74.80 nm

## CCCCCCCCCCCOC(=O)CCCCCC1(CCCCCCCC(=O)OC(CCCCCCCC)CCCCCCCC)OCC(CCN(C)C)O1 (centres unmarked) [Compound 2]
[1]
  Encapsulation Efficiency: 92.32%
[3]
  Alanine transaminase: 116.27 U/L
  Aspartate transaminase: 342.17 U/L
[2]
  PDI: 0.03414
  Particle Size: 70.27 nm

## CCCCCCCCCCCNC(=O)CCCCCC1(CCCCCCCC(=O)NC(CCCCCCCC)CCCCCCCC)OCC(CCN(C)C)O1 (centres unmarked) [Compound 17]
[1]
  Encapsulation Efficiency: 98.2%
[2]
  PDI: 0.05
  Particle Size: 125.0 nm

## CCCCCCCCC(CCCCCC)C(=O)OCCCCCCC1(CCCCCCOC(=O)C(CCCCCC)CCCCCCCC)OCC(CCN(C)C)O1 (centres unmarked) [Compound 21]
[1]
  Encapsulation Efficiency: 96.8%
[2]
  PDI: 0.3138
  Particle Size: 92.89 nm

## CCCCCC(CCCCC)CCOC(=O)CCCCCCCC1(CCCCCCCC(=O)OCCC(CCCCC)CCCCC)OC[C@H](CCN(C)C)O1 [Compound 20A]
[1]
  Encapsulation Efficiency: 92.5%
[4]
  animals that died during the test: all five rats in Compound 20A group died
[2]
  PDI: 0.073
  Particle Size: 85.64 nm

## CCCCCCCCCCCOC(=O)CCCCCC1(CCCCCCCC(=O)OC(CCCCCCCC)CCCCCCCC)OCC(CN(C)C)O1 (centres unmarked) [Compound 3]
[1]
  Encapsulation Efficiency: 95.04%
[2]
  PDI: 0.1264
  Particle Size: 95.04 nm

## CCCCCCCCCCC(=O)OCCCCCCC1(CCCCCCCC(=O)OC(CCCCCCCC)CCCCCCCC)OC[C@H](CCN(C)C)O1 (some centres unmarked) [Compound 5A]
[1]
  Encapsulation Efficiency: 96.0%
[4]
  aspartate aminotransferase and alanine aminotransferase values compared with MC3 and SM102 groups: lower than those of the groups of the ionizable lipids MC3 and SM102
[2]
  PDI: 0.1311
  Particle Size: 73.41 nm
[5]
  extrahepatic delivery effect: significant extrahepatic delivery effects

## CCCCCCCCCCCOC(=O)CCCCCC1(CCCCCCCC(=O)OC(CCCCCCCC)CCCCCCCC)OCC(CCCCN(C)C)O1 (centres unmarked) [Compound 14]
[1]
  Encapsulation Efficiency: 90.97%
[2]
  PDI: 0.16
  Particle Size: 118.1 nm

## CCCCCCCCCCCOC(=O)CCCCCC1(CCCCCCCC(=O)OC(CCCCCCCC)CCCCCCCC)OC[C@H](CCN(C)C)O1 (some centres unmarked) [Compound 2A]
[1]
  Encapsulation Efficiency: 96.44%
[4]
  aspartate aminotransferase and alanine aminotransferase values compared with MC3 and SM102 groups: lower than those of the groups of the ionizable lipids MC3 and SM102
[2]
  PDI: 0.02967
  Particle Size: 86.26 nm
[5]
  extrahepatic delivery effect: significant extrahepatic delivery effects

## CCCCCCCCCCCOC(=O)CCCCCC1(CCCCCCCC(=O)OC(CCCCCCCC)CCCCCCCC)OCC(CCN(C)CC)O1 (centres unmarked) [Compound 10]
[1]
  Encapsulation Efficiency: 96.5%
[2]
  PDI: 0.07
  Particle Size: 78.44 nm

## CCCCCCCCCCC(=O)OCCCCCCC1(CCCCCCCC(=O)OC(CCCCCCCC)CCCCCCCC)OC[C@@H](CCN(C)C)O1 (some centres unmarked) [Compound 5B]
[1]
  Encapsulation Efficiency: 98.4%
[2]
  PDI: 0.04848
  Particle Size: 67.95 nm

## CCCCC/C=C\C/C=C\CCCCCCCCC(CCCCCCCC/C=C\C/C=C\CCCCC)OC(=O)CCCN(C)C [MC3, reference compound]
[1]
  Encapsulation Efficiency: 96.7%
[4]
  animals that died during the test: four rats in the MC3 group died
[2]
  PDI: 0.15
  Particle Size: 72.70 nm

## CCCCCCCCCCC(=O)OCCCCCCC1(CCCCCCCCOC(=O)C(CCCCCCCC)CCCCCCCC)OCC(CN(C)C)CO1 (centres unmarked) [Compound 9]
[1]
  Encapsulation Efficiency: 95.07%
[2]
  PDI: 0.1368
  Particle Size: 71.61 nm
